From patent publication US20250213523A1, “COMBINATION OF HDAC INHIBITORS AND STATINS FOR USE IN THE TREATMENT OF PANCREATIC CANCER” (ISTITUTO NAZIONALE TUMORI IRCCS - FONDAZIONE G. PASCALE, priority 2022, published 2025) come the findings set out here.

The test system of assay [1] is PANC1. The experiment in a line: Cell proliferation assay (Sulforhodamine B), IC50. To be noted: Homo sapiens, PANC-1; PANC1, 96 hours of treatment; read-out: IC50 96 h mean ± SD. Type of assay: cell-based. As for the experimental part: (§1) Cell proliferation was measured in 96-well plates in cells untreated and treated with described drugs as single agent or in combination. […] Drugs combination studies were based on concentration-effect curves generated as a plot of the fraction of unaffected (surviving) cells versus drug concentration after 96 h of treatment. Synergism, additivity, and antagonism were quantified after an evaluation of the Combination Index (CI), which was calculated by the Chou-Talalay equation with CalcuSyn software (Biosoft, Cambridge, UK-Chou T C. Cancer Res. 2010 Jan. 15; 70(2):440-6.), as described elsewhere (Terranova-Barberio M, J Exp Clin Cancer Res. 2017; 36(1):177); Bruzzese et al, J Cell Physiol 2011, 226(9):2378-2390). […] The DRI determined the magnitude of dose reduction allowed for each drug when given in combination, compared with the concentration of a single agent that is needed to achieve the same effect. Clonogenic assay Colony formation assay is an in vitro cell survival assay based on the ability of a single cell to grow into a colony. The PANC1, ASPC1 and PANC28 cell lines were plated in 96 well plates with 50 cell/well while the BxPC3 cell line with 100 cell/well. The day after the cells were treated with VPA, SIM alone (at dose of IC10, IC25 and IC50) and in combination. The cells were grown for 10 days. The formed colonies were fixed with TCA (50%) and measured using a spectrophotometric dye incorporation assay (Sulforhodamine B or crystal violet). Microtissue formation assay Pancreatic cancer cell lines PANC1, ASPC1, PANC28, BxPC3 and MiaPaca were cultured as microtissues by the ultra-low attachment (ULA) System (PerkinElmer). The cancer cells were marked using a green fluorescent probe-cell traker (Thermo Fisher) while fibroblast (only for preliminary experiment to evaluate tissues formation) with red probe (PKH-26 Sigma Aldrich) according to manufacture instruction. […] 3D microtissues were maintained in the incubator and photographed by Opera Phenix microscope (Perkin Elmer) air objective magnification 5× and/or scored by Cell Titer-Glo® 3D Cell Viability Assay (Promega) by using a Multimode Reader Cytation 5 (Biotek).

Assay [2] has as its system ASPC1. The experiment in a line: Cell proliferation assay (Sulforhodamine B), IC50. Particulars: Homo sapiens; ASPC1, 96 hours of treatment; read-out: IC50 96 h mean ± SD. Type of assay: cell-based. As for the experimental part:
as §1

For assay [3], the system named is COLO357. The experiment in a line: Cell proliferation assay (Sulforhodamine B), IC50. Type of assay: cell-based. Particulars: Homo sapiens; COLO357, 96 hours of treatment; read-out: IC50 96 h mean ± SD. As for the experimental part:
as §1, with “The day after the cells were treated with VPA, SIM alone (at dose of IC10, IC25 and IC50) and in combination.” left out

For assay [4], the system named is L3.6pl. As to the kind of experiment: Cell proliferation assay (Sulforhodamine B), IC50. Type of assay: cell-based. To be noted: Homo sapiens, 96 hours of treatment, read-out: IC50 96 h mean ± SD. As for the experimental part:
as §1, with “The day after the cells were treated with VPA, SIM alone (at dose of IC10, IC25 and IC50) and in combination.” left out

For assay [5], the system named is BxPC3. As to the kind of experiment: Cell proliferation assay (Sulforhodamine B), IC50. Type of assay: cell-based. Particulars: Homo sapiens, BXPC-3; BxPC3, 96 hours of treatment; read-out: IC50 96 h mean ± SD. As to the method: as §1, with “The day after the cells were treated with VPA, SIM alone (at dose of IC10, IC25 and IC50) and in combination.” left out
Assay [6] has as its system MIAPACA. The experiment in a line: Cell proliferation assay (Sulforhodamine B), IC50. Type of assay: cell-based. To be noted: Homo sapiens, MIA PaCa-2, 96 hours of treatment, read-out: IC50 96 h mean ± SD. As for the experimental part:
as §1, with “The day after the cells were treated with VPA, SIM alone (at dose of IC10, IC25 and IC50) and in combination.” left out

Assay [7] has as its system MDA-PANC28. As to the kind of experiment: Cell proliferation assay (Sulforhodamine B), IC50. Type of assay: cell-based. To be noted: Homo sapiens, MDA-Panc-28; MDA-PANC28, 96 hours of treatment; read-out: IC50 96 h mean ± SD. As for the experimental part:
as §1, with “The day after the cells were treated with VPA, SIM alone (at dose of IC10, IC25 and IC50) and in combination.” left out

For assay [8], the system named is KPC ID11. The experiment in a line: Cell proliferation assay (Sulforhodamine B), IC50. Type of assay: cell-based, C57/BL6 mice. Particulars: Mus musculus; KPC ID11, 96 hours of treatment; read-out: IC50 96 h mean ± SD. As for the experimental part: (§2) FIG. 1. Pancreatic Cancer Cell lines features. A. Basal mRNA basal levels of EMT markers Vimentin and E-Cadherin in PDAC cell lines L3.6pl, BxPC3, COLO357, PANC28, PANC1, ASPC1 and MIAPACA2, in normal pancreatic cells HPDE cells, as well as in 2 established PDX-derived primary cells KPC ID11 and KPC ID95 were determined by qRT-PCR. […] Cells were grown for 48 h before preparation of cell lysates. Proteins were separated by SDS-PAGE and transferred to PVDF membranes using standard protocols. The membranes were probed with specific antibodies and Ponceau Red as total protein loading controls. Data represents representative results of at least three independent experiments.
as §1, with “The day after the cells were treated with VPA, SIM alone (at dose of IC10, IC25 and IC50) and in combination.” left out

Assay [9] has as its system KPC ID95. As to the kind of experiment: Cell proliferation assay (Sulforhodamine B), IC50. Type of assay: cell-based, C57/BL6 mice. Particulars: Mus musculus; KPC ID95, 96 hours of treatment; read-out: IC50 96 h mean ± SD. As for the experimental part:
as §2
as §1, with “The day after the cells were treated with VPA, SIM alone (at dose of IC10, IC25 and IC50) and in combination.” left out

The test system of assay [10] is PANC1, ASPC1, PANC28 and BxPC3 cells. As to the kind of experiment: Colony formation (clonogenic) assay. Type of assay: cell-based, human. To be noted: high (IC25) and low (IC10) doses; all cell lines. As to the method:
FIG. 3. VPA plus SIMVASTATIN antiproliferative and pro-apoptotic effects in PDAC cell lines. A. Synergistic inhibition of colony formation by the VPA/SIM in ASPC1, PANC28, PANC1 and BxPC3 cell lines. […] Upper panel: representative imagines of one experiment; in the lower panel: the bar graphs represent the values of absorbance of colonies after SRB colorimetric assay. Statistical significance was determined by a 2 tailed, unpaired Student's T test (*P<0.05;** P<0.01). B.-C. Synergistic inhibition of microtissues formation by the VPA and SIM alone and in combination. […] The graphics represent the number of viable cells in 3D cell culture based on quantitation of the ATP content. […] Statistical significance was determined by a 2 tailed, unpaired Student's T test (*P<0.05;** P<0.01) (C). […] Antiproliferative effect was assessed in all PDAC cell lines by sulforhodamine B colorimetric assay (see Methods) and expressed as percentage of control. B Apoptosis was evaluated by Caspase 3/7 activity assay, in PANC1, PANC28 and ASPC1 cells untreated or treated for 24 h with VPA/SIM and/or GEM/TAX at the low doses (VPA 0.5 mM, SIM 0,625 μM, GEM 25 nM and TAX 1.25 nM) and evaluated by luminescence assay. […] Expression of cleaved PARP in PANC1, PANC28 and ASPC1 cell lines untreated or treated with VPA/SIM and/or GEM/TAX for 24 h was evaluated by western blotting. βActin was used as loading control. […]

As for `CC(C)c1c(C(=O)Nc2ccccc2)c(-c2ccccc2)c(-c2ccc(F)cc2)n1CC[C@@H](O)C[C@@H](O)CC(=O)O` [ATOR, Atorvastatin], the half-inhibitory concentration (IC50) (in general, the midpoint of a concentration-inhibition curve) in [1] is 14.4 ± 0.56 µM; in assay [2], 4.55 ± 0.07 µM; in [3], 12 ± 2.2 µM; in [4], 11 ± 3.2 µM; in assay [5] it was 16.9 ± 4.3 µM; in assay [6], 1.8 ± 0.06 µM. The IC50 in [7] was found to be 3.25 ± 0.35 µM.
As for `CC[C@H](C)C(=O)O[C@H]1C[C@@H](C)C=C2C=C[C@H](C)[C@H](CC[C@@H]3C[C@@H](O)CC(=O)O3)[C@H]21` [LOV, Lovastatin], the IC50 in assay [1] came to 28.2 ± 5.9 µM; in assay [2] it was 8.83 ± 2.4 µM; in assay [3], 8 ± 0.5 µM; in [4], 12.1 ± 0.33 µM; in [5], 18.7 ± 6.95 µM; in [6], 3 ± 0.4 µM. The IC50 in [7] was 4.05 ± 0.55 µM.
Turning to `Nc1ccccc1NC(=O)c1ccc(CNC(=O)OCc2cccnc2)cc1` [MS-275], the 50% inhibitory concentration (IC50) in [1] was 2.65 ± 0.07 µM; in assay [2] it was 2.2 ± 0.14 µM; in assay [3], > 8 µM; in assay [4], > 8 µM; in [5], 0.9 ± 0.05 µM; in assay [6] it was 0.02 µM. Also, the values for the IC50 in assay [7], in [8] and in [9] were 2.1 ± 0.14 µM, > 8 µM and > 8 µM, respectively.
In the case of `Cc1[nH]c2ccccc2c1CCNCc1ccc(/C=C/C(=O)NO)cc1` [PAN, 2-(E)-N-hydroxy-3-[4 [[[2-(2-methyl-1H-indol-3-yl)ethyl]amino]methyl]phenyl]-2-propenamide], the concentration for half-maximal inhibition (IC50) in assay [1] is 0.0137 ± 0.00275 µM; in assay [2], 0.0156 ± 0.00177 µM; in [3], 0.065 ± 0.00703 µM; in assay [4], > 0.16 µM; in assay [5] it was 0.0243 ± 0.00503 µM; in [6] it was 0.016 ± 0.0014 µM. Also, the results for the IC50 in assay [7], in assay [8] and in [9] were 0.0224 ± 0.00056 µM, > 0.16 µM and > 0.16 µM, respectively.
`CCC(C)(C)C(=O)O[C@H]1C[C@@H](C)C=C2C=C[C@H](C)[C@H](CC[C@@H]3C[C@@H](O)CC(=O)O3)[C@H]21` [SIM, Simvastatin]: the IC50 in assay [1] was 9.2 ± 0.9 µM; in assay [2] it was 1.5 ± 0.28 µM; in [3] it was 6 ± 0.5 µM; in [4], 5.1 ± 0.8 µM; in assay [5], 11.2 ± 2.59 µM; in assay [6], 2 ± 0.21 µM. Besides, the half-maximal inhibitory concentration (IC50) came out at 1.3 ± 0.07 µM in [7], 2.3 ± 0.48 µM in [8] and 1.05 ± 0.06 µM in assay [9].
As for `O=C(CCCCCCC(=O)Nc1ccccc1)NO` [VOR, Vorinostat], the values for the IC50 in assay [1] and in [2] were 0.82 ± 0.1 µM and 0.74 ± 0.04 µM, respectively.
For `CCCC(CCC)C(=O)O` [VPA, 2-propylpentanoic acid], the IC50 in [1] amounted to 4500 ± 70 µM; in assay [2], 3500 ± 70 µM; in assay [3] it was 1000 ± 100 µM; in assay [4], 2200 ± 120 µM; in assay [5], 1820 ± 190 µM; in [6], 750 ± 50 µM. In addition, the IC50 in assay [7] was found to be 2800 ± 560 µM; in assay [8], 1800 ± 40 µM; in [9] it was 1600 ± 380 µM. The colonies formation result in assay [10] is on record as “inhibited colonies formation”.
